The target of test [1] is T1, 5-hydroxytryptamine receptor 2C (Homo sapiens) (UniProt P28335).
T1 sequence (whole entry): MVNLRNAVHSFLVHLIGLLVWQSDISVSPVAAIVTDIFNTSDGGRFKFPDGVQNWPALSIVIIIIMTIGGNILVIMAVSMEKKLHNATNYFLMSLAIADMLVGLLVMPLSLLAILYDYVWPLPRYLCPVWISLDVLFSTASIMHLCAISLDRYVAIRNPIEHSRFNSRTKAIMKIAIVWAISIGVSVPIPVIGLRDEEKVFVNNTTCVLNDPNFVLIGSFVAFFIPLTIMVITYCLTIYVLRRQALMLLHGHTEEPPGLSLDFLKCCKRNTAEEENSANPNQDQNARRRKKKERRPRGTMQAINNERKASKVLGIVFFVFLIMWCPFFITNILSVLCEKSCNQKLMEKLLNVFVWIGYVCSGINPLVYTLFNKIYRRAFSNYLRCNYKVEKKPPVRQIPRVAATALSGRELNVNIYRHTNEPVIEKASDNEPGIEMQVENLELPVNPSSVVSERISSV
Description: Selectivity interaction (Panel of kinases, GPCRs, ion channels and transporters (enzymatic assay)) EUB0000266bCl HTR2C.

The target of test [2] is T2, cGMP-dependent protein kinase 2 (Homo sapiens) (UniProt Q13237).
T2 sequence (whole entry): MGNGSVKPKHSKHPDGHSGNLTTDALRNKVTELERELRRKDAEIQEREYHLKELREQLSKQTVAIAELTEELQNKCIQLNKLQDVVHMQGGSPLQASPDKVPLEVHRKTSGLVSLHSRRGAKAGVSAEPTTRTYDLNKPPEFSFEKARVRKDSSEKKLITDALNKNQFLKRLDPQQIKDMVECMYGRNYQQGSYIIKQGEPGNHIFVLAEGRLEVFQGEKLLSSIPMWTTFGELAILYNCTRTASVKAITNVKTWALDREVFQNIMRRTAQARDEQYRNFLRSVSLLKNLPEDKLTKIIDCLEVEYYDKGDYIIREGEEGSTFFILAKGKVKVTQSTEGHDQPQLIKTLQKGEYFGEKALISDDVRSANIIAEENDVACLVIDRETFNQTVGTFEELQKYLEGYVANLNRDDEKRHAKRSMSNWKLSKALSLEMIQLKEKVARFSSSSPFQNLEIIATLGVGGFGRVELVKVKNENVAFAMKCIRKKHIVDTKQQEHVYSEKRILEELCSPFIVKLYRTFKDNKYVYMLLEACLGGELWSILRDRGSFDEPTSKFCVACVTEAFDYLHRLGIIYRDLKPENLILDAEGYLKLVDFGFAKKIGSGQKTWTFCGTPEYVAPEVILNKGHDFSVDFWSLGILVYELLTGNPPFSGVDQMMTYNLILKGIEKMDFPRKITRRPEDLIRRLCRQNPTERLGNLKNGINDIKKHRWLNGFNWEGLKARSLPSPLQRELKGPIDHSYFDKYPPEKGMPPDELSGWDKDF
Kind of test: Selectivity interaction (Upstate Kinase Profiler service (Millipore)) EUB0000056c PRKG2. Conditions: at 1 µM.

Test [3] addresses G protein-coupled receptor kinase 6 (Homo sapiens) (UniProt P43250). Description: Selectivity interaction (Upstate Kinase Profiler service (Millipore)) EUB0000056c GRK6. Conditions: at 1 µM.
Test [4] concerns the target T3, Serine/threonine-protein kinase 3 (Homo sapiens) (UniProt Q13188).
T3 sequence (whole entry): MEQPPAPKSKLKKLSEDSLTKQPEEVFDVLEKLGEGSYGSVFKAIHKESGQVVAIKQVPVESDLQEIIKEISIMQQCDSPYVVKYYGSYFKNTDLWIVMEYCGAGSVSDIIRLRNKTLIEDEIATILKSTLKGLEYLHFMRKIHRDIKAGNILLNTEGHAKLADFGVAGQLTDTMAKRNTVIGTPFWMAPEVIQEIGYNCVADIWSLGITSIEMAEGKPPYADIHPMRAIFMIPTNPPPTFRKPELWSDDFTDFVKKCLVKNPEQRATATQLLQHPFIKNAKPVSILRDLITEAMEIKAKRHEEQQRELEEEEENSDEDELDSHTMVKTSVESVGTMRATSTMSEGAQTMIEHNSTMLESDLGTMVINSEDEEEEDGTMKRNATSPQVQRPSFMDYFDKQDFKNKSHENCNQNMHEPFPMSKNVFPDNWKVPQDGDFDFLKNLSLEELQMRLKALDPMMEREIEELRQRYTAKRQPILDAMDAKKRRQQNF
Description: Selectivity interaction (ProQinase) EUB0000171b STK3.

In test [5] the target is Phosphatidylinositol 4-kinase beta (Homo sapiens, UniProt Q9UBF8). The following applies: at 10 µM.
Chain of Phosphatidylinositol 4-kinase beta (Q9UBF8 2-816 limits assumed): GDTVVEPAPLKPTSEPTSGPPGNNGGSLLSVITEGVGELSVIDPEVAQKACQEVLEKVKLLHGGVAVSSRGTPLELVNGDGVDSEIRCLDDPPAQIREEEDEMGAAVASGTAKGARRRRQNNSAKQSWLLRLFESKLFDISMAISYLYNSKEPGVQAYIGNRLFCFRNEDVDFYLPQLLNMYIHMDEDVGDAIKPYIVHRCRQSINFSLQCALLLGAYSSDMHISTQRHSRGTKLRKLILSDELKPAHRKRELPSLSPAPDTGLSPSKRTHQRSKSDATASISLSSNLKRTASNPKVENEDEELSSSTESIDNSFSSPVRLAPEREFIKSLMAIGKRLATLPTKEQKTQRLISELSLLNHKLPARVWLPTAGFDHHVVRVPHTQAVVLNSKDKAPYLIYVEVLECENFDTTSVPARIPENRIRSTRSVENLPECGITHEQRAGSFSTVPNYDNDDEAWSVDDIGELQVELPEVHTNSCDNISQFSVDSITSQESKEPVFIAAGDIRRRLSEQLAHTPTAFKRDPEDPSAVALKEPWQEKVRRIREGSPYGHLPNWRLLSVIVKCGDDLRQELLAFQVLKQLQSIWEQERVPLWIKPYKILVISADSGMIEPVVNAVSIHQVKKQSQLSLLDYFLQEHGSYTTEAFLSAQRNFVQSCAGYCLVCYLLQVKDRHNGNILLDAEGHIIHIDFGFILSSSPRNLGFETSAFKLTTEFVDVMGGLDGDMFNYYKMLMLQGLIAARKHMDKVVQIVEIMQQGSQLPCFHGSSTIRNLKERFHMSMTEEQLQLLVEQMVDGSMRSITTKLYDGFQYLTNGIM
Test [6] addresses Insulin receptor-related protein (Homo sapiens) (UniProt P14616). Description: Selectivity interaction (Kinase panel (Invitrogen)) EUB0000639a INSRR. The following applies: at 200 nM.
Test [7] concerns the target SRSF protein kinase 2 (Homo sapiens) (UniProt P78362). Description: Selectivity interaction (Kinase panel (Invitrogen)) EUB0000639a SRPK2. Conditions: at 200 nM.
Test [8] deals with T4, Cytoplasmic tyrosine-protein kinase BMX (Homo sapiens) (UniProt P51813).
T4 sequence (whole entry): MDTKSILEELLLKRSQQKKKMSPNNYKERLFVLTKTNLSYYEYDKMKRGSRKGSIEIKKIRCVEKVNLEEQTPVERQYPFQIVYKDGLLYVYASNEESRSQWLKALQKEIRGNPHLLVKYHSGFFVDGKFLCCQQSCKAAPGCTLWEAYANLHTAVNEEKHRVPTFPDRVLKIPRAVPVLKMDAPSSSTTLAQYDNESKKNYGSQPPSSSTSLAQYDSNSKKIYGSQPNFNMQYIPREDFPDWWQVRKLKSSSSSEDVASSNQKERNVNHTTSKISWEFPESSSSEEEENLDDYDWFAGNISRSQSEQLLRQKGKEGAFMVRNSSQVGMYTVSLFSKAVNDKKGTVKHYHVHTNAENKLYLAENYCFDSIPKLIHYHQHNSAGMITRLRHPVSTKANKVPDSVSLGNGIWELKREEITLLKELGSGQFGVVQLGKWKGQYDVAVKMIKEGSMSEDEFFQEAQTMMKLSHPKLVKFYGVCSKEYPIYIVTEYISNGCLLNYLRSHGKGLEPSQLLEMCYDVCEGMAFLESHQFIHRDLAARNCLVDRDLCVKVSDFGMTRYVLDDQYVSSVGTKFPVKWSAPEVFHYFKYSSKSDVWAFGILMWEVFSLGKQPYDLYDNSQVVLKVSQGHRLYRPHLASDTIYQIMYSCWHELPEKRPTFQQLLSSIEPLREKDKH
Description: Selectivity interaction (KinomeScan (DiscoverX)) EUB0000595a BMX. The following applies: at 10 µM.

The target of test [9] is Diacylglycerol kinase alpha (Homo sapiens) (UniProt P23743). Description: Selectivity interaction (Kinase panel (KiNativ target engagement assay in Jurkat cells)) EUB0001635a DGKA. The following applies: Selectivity number of off-targets 0.0, Selectivity number of targets 233.0, Source Knowledge https://www.sciencedirect.com/science/article/pii/S2451945619300674?via%3Dihub, at 1 µM. Type of test: cell-based.
Chain of Diacylglycerol kinase alpha (Homo sapiens) (P23743 whole entry): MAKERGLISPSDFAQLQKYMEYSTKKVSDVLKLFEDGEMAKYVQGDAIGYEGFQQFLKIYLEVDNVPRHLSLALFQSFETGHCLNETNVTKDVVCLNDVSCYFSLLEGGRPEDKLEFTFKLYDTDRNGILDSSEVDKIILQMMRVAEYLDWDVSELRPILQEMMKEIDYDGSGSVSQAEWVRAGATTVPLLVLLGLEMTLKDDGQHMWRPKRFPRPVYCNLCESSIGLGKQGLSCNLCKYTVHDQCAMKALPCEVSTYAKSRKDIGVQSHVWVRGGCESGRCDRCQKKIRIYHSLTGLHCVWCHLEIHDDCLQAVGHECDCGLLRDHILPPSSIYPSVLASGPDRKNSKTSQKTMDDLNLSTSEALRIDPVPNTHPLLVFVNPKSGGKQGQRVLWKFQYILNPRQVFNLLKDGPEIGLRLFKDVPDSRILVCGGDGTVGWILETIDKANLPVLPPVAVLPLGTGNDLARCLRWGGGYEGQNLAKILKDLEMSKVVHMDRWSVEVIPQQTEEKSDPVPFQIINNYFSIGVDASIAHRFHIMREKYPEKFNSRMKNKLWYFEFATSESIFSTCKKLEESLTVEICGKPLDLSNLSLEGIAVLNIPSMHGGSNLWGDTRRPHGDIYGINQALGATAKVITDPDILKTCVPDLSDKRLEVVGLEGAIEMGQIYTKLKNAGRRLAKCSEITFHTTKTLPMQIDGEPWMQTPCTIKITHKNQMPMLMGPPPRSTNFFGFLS

SMILES strings stand for the structures. A value given as a limit tells only on which side of the number the result lay.

Consider seven molecules from ChEMBL document CHEMBL5465560, “Selectivity Literature for EUbOPEN Chemogenomic Library” (2024).

Chain of SRSF protein kinase 2 (Homo sapiens) (P78362 whole entry, looked up): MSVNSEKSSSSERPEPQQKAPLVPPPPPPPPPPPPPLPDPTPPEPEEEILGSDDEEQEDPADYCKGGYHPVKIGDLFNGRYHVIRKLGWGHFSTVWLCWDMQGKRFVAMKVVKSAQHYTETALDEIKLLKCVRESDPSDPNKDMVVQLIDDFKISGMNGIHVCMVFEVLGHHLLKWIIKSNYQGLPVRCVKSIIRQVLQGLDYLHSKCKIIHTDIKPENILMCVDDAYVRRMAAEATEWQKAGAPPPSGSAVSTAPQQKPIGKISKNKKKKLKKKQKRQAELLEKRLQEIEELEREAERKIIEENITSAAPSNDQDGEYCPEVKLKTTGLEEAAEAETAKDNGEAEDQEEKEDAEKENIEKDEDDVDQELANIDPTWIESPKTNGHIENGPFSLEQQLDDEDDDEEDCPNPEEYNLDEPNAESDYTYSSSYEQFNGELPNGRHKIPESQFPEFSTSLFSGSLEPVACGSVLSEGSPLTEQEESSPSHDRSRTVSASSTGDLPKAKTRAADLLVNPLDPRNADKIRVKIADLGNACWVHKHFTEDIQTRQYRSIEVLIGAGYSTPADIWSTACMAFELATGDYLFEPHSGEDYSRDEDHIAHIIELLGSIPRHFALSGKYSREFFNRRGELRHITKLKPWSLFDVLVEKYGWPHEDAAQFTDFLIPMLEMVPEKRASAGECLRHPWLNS
Chain of G protein-coupled receptor kinase 6 (Homo sapiens) (P43250 whole entry, looked up): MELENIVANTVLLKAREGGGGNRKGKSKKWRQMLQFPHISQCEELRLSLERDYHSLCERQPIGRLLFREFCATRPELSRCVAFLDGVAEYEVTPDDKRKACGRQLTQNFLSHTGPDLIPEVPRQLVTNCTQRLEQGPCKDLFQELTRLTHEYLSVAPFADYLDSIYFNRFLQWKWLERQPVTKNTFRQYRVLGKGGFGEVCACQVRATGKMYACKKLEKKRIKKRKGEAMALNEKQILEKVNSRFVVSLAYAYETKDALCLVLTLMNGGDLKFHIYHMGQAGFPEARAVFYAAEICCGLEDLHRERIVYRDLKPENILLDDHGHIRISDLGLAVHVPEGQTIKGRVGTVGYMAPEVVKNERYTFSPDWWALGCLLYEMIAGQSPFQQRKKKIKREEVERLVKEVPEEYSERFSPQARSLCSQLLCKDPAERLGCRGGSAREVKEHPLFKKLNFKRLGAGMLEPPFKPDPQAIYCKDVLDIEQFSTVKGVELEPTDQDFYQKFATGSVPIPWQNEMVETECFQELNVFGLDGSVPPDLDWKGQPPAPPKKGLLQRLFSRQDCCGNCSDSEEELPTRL
Chain of Insulin receptor-related protein (Homo sapiens) (P14616 27-742 limits assumed): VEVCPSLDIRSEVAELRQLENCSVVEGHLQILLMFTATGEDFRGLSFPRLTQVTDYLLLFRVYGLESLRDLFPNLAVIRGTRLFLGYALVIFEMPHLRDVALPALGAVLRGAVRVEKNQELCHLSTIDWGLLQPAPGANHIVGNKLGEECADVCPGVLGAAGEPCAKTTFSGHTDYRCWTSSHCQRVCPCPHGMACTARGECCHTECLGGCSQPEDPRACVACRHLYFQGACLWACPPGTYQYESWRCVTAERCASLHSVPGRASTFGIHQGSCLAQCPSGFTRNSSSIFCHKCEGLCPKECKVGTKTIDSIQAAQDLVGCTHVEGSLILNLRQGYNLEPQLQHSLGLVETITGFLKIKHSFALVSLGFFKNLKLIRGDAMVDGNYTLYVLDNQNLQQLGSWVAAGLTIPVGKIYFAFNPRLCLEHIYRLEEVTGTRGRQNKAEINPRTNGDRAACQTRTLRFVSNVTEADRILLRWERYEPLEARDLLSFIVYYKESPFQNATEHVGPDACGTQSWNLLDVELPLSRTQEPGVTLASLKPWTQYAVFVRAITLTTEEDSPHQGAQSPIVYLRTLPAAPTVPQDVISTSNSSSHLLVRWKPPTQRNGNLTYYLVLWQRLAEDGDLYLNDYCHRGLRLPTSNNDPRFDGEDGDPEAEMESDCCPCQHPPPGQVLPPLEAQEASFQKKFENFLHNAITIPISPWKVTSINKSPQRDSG
Chain of Insulin receptor-related protein (Homo sapiens) (P14616 747-1297 limits assumed): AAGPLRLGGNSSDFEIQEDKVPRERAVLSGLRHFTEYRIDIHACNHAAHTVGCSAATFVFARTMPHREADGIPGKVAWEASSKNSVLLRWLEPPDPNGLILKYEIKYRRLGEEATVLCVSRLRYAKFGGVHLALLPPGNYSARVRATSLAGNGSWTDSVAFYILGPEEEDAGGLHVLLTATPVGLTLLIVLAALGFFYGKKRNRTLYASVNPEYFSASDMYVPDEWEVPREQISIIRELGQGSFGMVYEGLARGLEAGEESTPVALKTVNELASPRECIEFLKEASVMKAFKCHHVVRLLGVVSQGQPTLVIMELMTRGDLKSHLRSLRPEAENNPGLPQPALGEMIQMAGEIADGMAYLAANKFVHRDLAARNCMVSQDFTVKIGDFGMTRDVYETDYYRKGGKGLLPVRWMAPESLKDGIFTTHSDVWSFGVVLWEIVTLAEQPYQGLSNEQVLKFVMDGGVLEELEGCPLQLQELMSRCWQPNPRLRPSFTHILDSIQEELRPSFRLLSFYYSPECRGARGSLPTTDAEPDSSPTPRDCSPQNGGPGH

Molecule `CCn1c(-c2nc3cc(C(=O)N4CCCC(N)C4)ccc3n2C)cc2ccccc21` (stereo not given) came in with a pXC50 in test [1] below 4.4 M.
Consider `Cc1ccc(-c2ccc3c(ccc4sc5c(c43)NC[C@@H](C)NC5=O)n2)cn1`, for which the % of inhibition was -6% in test [2] and 10% in test [3].
Regarding `C=CC(=O)Nc1cccc(C(=O)Nc2ccc(Nc3cc(-c4[nH]c(SC)nc4C)ccn3)cc2)c1`, the results for the % of control in test [4] (at 1 µM) and in test [4] (at 5 µM) were 83% and 69%, respectively.
Take `Cc1cc([C@@H](C)Nc2ccccc2C(=O)O)c2nc(N3CCOCC3)cc(=O)n2c1` [AZD-6482]: the % of control in [5] was 100%.
Regarding `CC[C@@H]1[C@H](F)C(=O)N[C@@H]1COc1nccc2cc(C(N)=O)c(OC)cc12` [ZIMLOVISERTIB], the % of inhibition was 2.97% in test [6] and -1.85% in test [7].
The molecule `COCC(=O)NC/C=C/c1ccc2ncnc(Nc3ccc(Oc4ccc(C)nc4)c(C)c3)c2c1` [CP-724714] returned a % of control in test [8] of 73%.
In the case of `C=CC(=O)Nc1ccc(C(=O)Nc2[nH]nc3c2CN(C(=O)N[C@H](CN(C)C)c2ccccc2)C3(C)C)cc1`, the % of engagement in test [9] is -18.9%.
